Assay results reported in PubChem BioAssay (NCI).
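How tested: cells in 96-well plates exposed to compound for 48 hours at five concentrations. The concentration for full growth arrest is given as TGI.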

Legend:
Assay in all cases: NCI-60 cell line screen, 48 h
786-0 renal = system: 786-0 renal
A498 renal = system: A498 renal
A549 NSCLC = system: A549 NSCLC
ACHN renal = system: ACHN renal
BT-549 breast = system: BT-549 breast
CAKI-1 renal = system: CAKI-1 renal
CCRF-CEM leukemia = system: CCRF-CEM leukemia
COLO 205 colon = system: COLO 205 colon
DU-145 prostate = system: DU-145 prostate
EKVX NSCLC = system: EKVX NSCLC
HCC-2998 colon = system: HCC-2998 colon
HCT-116 colon = system: HCT-116 colon
HCT-15 colon = system: HCT-15 colon
HL-60(TB) leukemia = system: HL-60(TB) leukemia
HOP-62 NSCLC = system: HOP-62 NSCLC
HOP-92 NSCLC = system: HOP-92 NSCLC
HS 578T breast = system: HS 578T breast
HT29 colon = system: HT29 colon
IGROV1 ovarian = system: IGROV1 ovarian
K-562 leukemia = system: K-562 leukemia
KM12 colon = system: KM12 colon
LOX IMVI melanoma = system: LOX IMVI melanoma
M14 melanoma = system: M14 melanoma
MALME-3M melanoma = system: MALME-3M melanoma
MCF7 breast = system: MCF7 breast
MDA-MB-231 breast = system: MDA-MB-231 breast
MDA-MB-435 = system: MDA-MB-435
MDA-N = system: MDA-N
MOLT-4 leukemia = system: MOLT-4 leukemia
NCI-H226 lung = system: NCI-H226 lung
NCI-H23 lung = system: NCI-H23 lung
NCI-H460 lung = system: NCI-H460 lung
NCI-H522 lung = system: NCI-H522 lung
NCI/ADR-RES ovarian = system: NCI/ADR-RES ovarian
OVCAR-3 ovarian = system: OVCAR-3 ovarian
OVCAR-4 ovarian = system: OVCAR-4 ovarian
OVCAR-5 ovarian = system: OVCAR-5 ovarian
OVCAR-8 ovarian = system: OVCAR-8 ovarian
PC-3 prostate = system: PC-3 prostate
RPMI-8226 leukemia = system: RPMI-8226 leukemia
RXF 393 renal = system: RXF 393 renal
SF-268 CNS = system: SF-268 CNS
SF-295 CNS = system: SF-295 CNS
SF-539 CNS = system: SF-539 CNS
SK-MEL-2 melanoma = system: SK-MEL-2 melanoma
SK-MEL-28 melanoma = system: SK-MEL-28 melanoma
SK-MEL-5 melanoma = system: SK-MEL-5 melanoma
SK-OV-3 ovarian = system: SK-OV-3 ovarian
SN12C renal = system: SN12C renal
SNB-19 CNS = system: SNB-19 CNS
SNB-75 CNS = system: SNB-75 CNS
SR leukemia = system: SR leukemia
SW-620 colon = system: SW-620 colon
T-47D breast = system: T-47D breast
TK-10 renal = system: TK-10 renal
U251 CNS = system: U251 CNS
UACC-257 melanoma = system: UACC-257 melanoma
UACC-62 melanoma = system: UACC-62 melanoma
UO-31 renal = system: UO-31 renal
DLD-1 colon = system: DLD-1 colon
DMS 114 small cell lung = system: DMS 114 small cell lung
DMS 273 small cell lung = system: DMS 273 small cell lung
KM20L2 colon = system: KM20L2 colon
LXFL 529 NSCLC = system: LXFL 529 NSCLC
M19-MEL melanoma = system: M19-MEL melanoma
SNB-78 CNS = system: SNB-78 CNS
XF 498 CNS = system: XF 498 CNS

Clc1ccc2c(NCCCCN3OC3c3ccccc3)ccnc2c1 (configuration not stated)
TGI (786-0 renal): 6.67 µM
TGI (A498 renal): 12.3 µM
TGI (A549 NSCLC): 19.2 µM
TGI (ACHN renal): 22.2 µM
TGI (BT-549 breast): 27 µM
TGI (CAKI-1 renal): 21.8 µM
TGI (CCRF-CEM leukemia): 8.09 µM
TGI (COLO 205 colon): 7.12 µM
TGI (DU-145 prostate): 24.9 µM
TGI (EKVX NSCLC): 38 µM
TGI (HCC-2998 colon): 11.1 µM
TGI (HCT-116 colon): 4.36 µM
TGI (HCT-15 colon): 23.5 µM
TGI (HL-60(TB) leukemia): 2.63 µM
TGI (HOP-62 NSCLC): 10.9 µM
TGI (HOP-92 NSCLC): 25.8 µM
TGI (HS 578T breast): 35.9 µM
TGI (HT29 colon): 10.9 µM
TGI (IGROV1 ovarian): 27.7 µM
TGI (K-562 leukemia): 4.92 µM
TGI (KM12 colon): 22.8 µM
TGI (LOX IMVI melanoma): 5.67 µM
TGI (M14 melanoma): 6.22 µM
TGI (MALME-3M melanoma): 16 µM
TGI (MCF7 breast): 17.5 µM
TGI (MDA-MB-231 breast): 5.92 µM
TGI (MDA-MB-435): 14.5 µM
TGI (MDA-N): 16.7 µM
TGI (MOLT-4 leukemia): 9.3 µM
TGI (NCI-H226 lung): 37.6 µM
TGI (NCI-H23 lung): 35.2 µM
TGI (NCI-H460 lung): 21.9 µM
TGI (NCI-H522 lung): 16.4 µM
TGI (NCI/ADR-RES ovarian): 40.2 µM
TGI (OVCAR-3 ovarian): 9.33 µM
TGI (OVCAR-4 ovarian): 12 µM
TGI (OVCAR-5 ovarian): 29.8 µM
TGI (OVCAR-8 ovarian): 13.1 µM
TGI (PC-3 prostate): 26.7 µM
TGI (RPMI-8226 leukemia): 5.98 µM
TGI (RXF 393 renal): 12 µM
TGI (SF-268 CNS): 27.1 µM
TGI (SF-295 CNS): 26.1 µM
TGI (SF-539 CNS): 3.63 µM
TGI (SK-MEL-2 melanoma): 11.1 µM
TGI (SK-MEL-28 melanoma): 7.42 µM
TGI (SK-MEL-5 melanoma): 11.4 µM
TGI (SK-OV-3 ovarian): 34.5 µM
TGI (SN12C renal): 24.7 µM
TGI (SNB-19 CNS): 18.9 µM
TGI (SNB-75 CNS): 11.4 µM
TGI (SR leukemia): > 100 µM
TGI (SW-620 colon): 18.5 µM
TGI (T-47D breast): 16.9 µM
TGI (TK-10 renal): 22 µM
TGI (U251 CNS): 9.13 µM
TGI (UACC-257 melanoma): 34.5 µM
TGI (UACC-62 melanoma): 27.1 µM
TGI (UO-31 renal): 28.6 µM

CCOc1ccc(N=C2NC(=O)C(CC(=O)Nc3ccccc3[N+](=O)[O-])S2)cc1 (configuration not stated)
TGI (786-0 renal): > 100 µM
TGI (A498 renal): > 100 µM
TGI (A549 NSCLC): > 100 µM
TGI (ACHN renal): > 100 µM
TGI (CAKI-1 renal): > 100 µM
TGI (CCRF-CEM leukemia): > 100 µM
TGI (DLD-1 colon): > 100 µM
TGI (DMS 114 small cell lung): > 100 µM
TGI (DMS 273 small cell lung): > 100 µM
TGI (EKVX NSCLC): > 100 µM
TGI (HCC-2998 colon): > 100 µM
TGI (HCT-116 colon): > 100 µM
TGI (HCT-15 colon): > 100 µM
TGI (HL-60(TB) leukemia): > 100 µM
TGI (HOP-92 NSCLC): > 100 µM
TGI (HT29 colon): > 100 µM
TGI (IGROV1 ovarian): > 100 µM
TGI (K-562 leukemia): > 100 µM
TGI (KM20L2 colon): > 100 µM
TGI (LOX IMVI melanoma): > 100 µM
TGI (LXFL 529 NSCLC): > 100 µM
TGI (M14 melanoma): > 100 µM
TGI (M19-MEL melanoma): > 100 µM
TGI (MALME-3M melanoma): > 100 µM
TGI (MOLT-4 leukemia): > 100 µM
TGI (NCI-H226 lung): > 100 µM
TGI (NCI-H23 lung): > 100 µM
TGI (NCI-H460 lung): > 100 µM
TGI (NCI-H522 lung): > 100 µM
TGI (OVCAR-3 ovarian): > 100 µM
TGI (OVCAR-4 ovarian): > 100 µM
TGI (OVCAR-5 ovarian): > 100 µM
TGI (OVCAR-8 ovarian): > 100 µM
TGI (RPMI-8226 leukemia): > 100 µM
TGI (RXF 393 renal): > 100 µM
TGI (SF-268 CNS): > 100 µM
TGI (SF-295 CNS): > 100 µM
TGI (SF-539 CNS): > 100 µM
TGI (SK-MEL-2 melanoma): > 100 µM
TGI (SK-MEL-28 melanoma): > 100 µM
TGI (SK-MEL-5 melanoma): > 100 µM
TGI (SN12C renal): > 100 µM
TGI (SNB-19 CNS): > 100 µM
TGI (SNB-75 CNS): > 100 µM
TGI (SNB-78 CNS): > 100 µM
TGI (SR leukemia): > 100 µM
TGI (SW-620 colon): > 100 µM
TGI (TK-10 renal): > 100 µM
TGI (U251 CNS): > 100 µM
TGI (UACC-257 melanoma): > 100 µM
TGI (UACC-62 melanoma): > 100 µM
TGI (UO-31 renal): > 100 µM
TGI (XF 498 CNS): > 100 µM
